Columns and labels:
[1] = Metabolic stability in mouse plasma assessed as compound remaining at 1 uM and measured at 3 hrs by LC-MS/MS analysis; type: ADME, cell-free; settings: read-out: Stability
[2] = Metabolic stability in mouse liver microsomes assessed as intrinsic clearance at 100 uM measure upto 60 mins in presence of NADPH by LC-MS/MS analysis; type: ADME, Microsome; settings: 1 h
[3] = system: A549; experiment: Antiproliferative activity against human A549 cells assessed as inhibition of cell growth at 0.1 uM measured after 72 hrs by MTT assay relative to control; type: functional
[4] = system: A549; experiment: Antiproliferative activity against human A549 cells assessed as inhibition of cell growth at 1 uM measured after 72 hrs by MTT assay relative to control; type: functional
[5] = system: A549; experiment: Antiproliferative activity against human A549 cells assessed as inhibition of cell growth at 0.01 uM measured after 72 hrs by MTT assay relative to control; type: functional
[6] = system: HepG2; experiment: Antiproliferative activity against human HepG2 cells assessed as inhibition of cell growth measured after 72 hrs by MTT assay; type: functional, cell-based; settings: HepG2, 72 h
[7] = system: A549; experiment: Antiproliferative activity against human A549 cells assessed as inhibition of cell growth measured after 72 hrs by MTT assay; type: functional, cell-based; settings: A549, 72 h
[8] = system: MDA-MB-231; experiment: Antiproliferative activity against human MDA-MB-231 cells assessed as inhibition of cell growth measured after 72 hrs by MTT assay; type: functional, cell-based; settings: MDA-MB-231, 72 h
[9] = system: K562; experiment: Antiproliferative activity against human K562 cells assessed as inhibition of cell growth measured after 72 hrs by MTT assay; type: functional, cell-based; settings: K562, 72 h
[10] = Antiproliferative activity against human HFL1 cells assessed as inhibition of cell growth measured after 72 hrs by MTT assay; type: toxicity, cell-based
[11] = system: A549/TR; experiment: Antiproliferative activity against human A549/Taxol cells assessed as inhibition of cell growth measured after 72 hrs by MTT assay; type: functional, cell-based
[12] = Resistance index, ratio of IC50 for antiproliferative activity against human A549/Taxol cells to IC50 for antiproliferative activity against human A549 cells; type: functional

SMILES | remaining at 3 h, 1 µM [1] | CLH [2] | inhibition at 0.1 µM [3] | inhibition at 1 µM [4] | inhibition at 0.01 µM [5] | IC50 [6] | IC50 [7] | IC50 [8] | IC50 [9] | IC50 at 72 h [10] | IC50 [11] | Ratio IC50 [12]
CC(=O)Oc1ccc(C(c2ccc(OC(C)=O)cc2)c2ccccn2)cc1 [BISACODYL] | 0.003% | – | – | – | – | – | – | – | – | – | – | –
C[C@]12CC[C@H]3[C@@H](CCC4=CC(=O)CC[C@@]43C)[C@@H]1CC[C@@H]2O [TESTOSTERONE] | – | 436 µL/min/mg | – | – | – | – | – | – | – | – | – | –
COc1cc2c(c(OC)c1OC)C(=O)CCN2c1ccc(O)cc1 | – | – | 15.1% | 29.9% | 9.57% | – | – | – | – | – | – | –
COc1ccc2c(c1)C(=O)CCN2c1ccc(OC)c(O)c1 | – | – | 40.2% | 66.6% | 32.5% | – | – | – | – | – | – | –
COc1cc2c(c(OC)c1OC)C(=O)CCN2Cc1ccc(F)cc1 | – | – | 16.3% | 32.1% | 12% | – | – | – | – | – | – | –
COc1cc2c(c(OC)c1OC)C(=O)CCN2Cc1ccccc1 | – | – | 6.72% | 23.2% | 8.31% | – | – | – | – | – | – | –
COc1ccc(N2CCC(=O)c3c2cc(OC)c(OC)c3OC)cc1 | – | – | 69.3% | 74.5% | 34% | 77 nM | 72 nM | 107 nM | 34 nM | 370 nM | – | –
COc1cc2c(c(OC)c1OC)C(=O)CCN2Cc1ccc(C(F)(F)F)cc1 | – | – | 22.1% | 28.6% | 6.29% | – | – | – | – | – | – | –
COc1cc2c(c(OC)c1OC)C(=O)CCN2c1ccc2c(c1)OCCO2 | – | – | 44.9% | 72.4% | 35.6% | 163 nM | 216 nM | 237 nM | 81 nM | 303 nM | – | –
COc1ccc(N2CCC(=O)c3c2cc(OC)c(OC)c3OC)cc1O | – | – | 68.3% | 68.4% | 43.9% | 32 nM | 34 nM | 96 nM | 30 nM | 284 nM | – | –
COc1cc2c(c(OC)c1OC)C(=O)CCN2c1ccc2[nH]ccc2c1 | – | – | 69% | 72% | 30.1% | 855 nM | 305 nM | 912 nM | 182 nM | 2980 nM | – | –
COc1ccc(N2CCC(=O)c3c2cc(OC)c(OC)c3OC)cn1 | – | – | 30.4% | 45.3% | 18.8% | – | – | – | – | – | – | –
COc1ccc(N2CCCc3c2cc(OC)c(OC)c3OC)cc1O | – | – | 45% | 81% | 35% | 668 nM | 276 nM | 1060 nM | 297 nM | 2660 nM | – | –
COc1ccc(N2CCC(=O)c3c2cc(OC)c(OC)c3OC)cc1OC | – | – | 17.6% | 41% | 11% | – | – | – | – | – | – | –
COc1cc2c(c(OC)c1OC)C(=O)CCN2c1cccc2[nH]ccc12 | – | – | 31.2% | 35.9% | 11.6% | – | – | – | – | – | – | –
COc1cc2c(c(OC)c1OC)C(=O)CCN2c1ccc2cc[nH]c2c1 | – | – | 38.2% | 71.1% | 22.4% | 2310 nM | 288 nM | 2890 nM | 902 nM | 9750 nM | – | –
COc1ccc(CN2CCC(=O)c3c2cc(OC)c(OC)c3OC)cc1O | – | – | 13% | 17.7% | 13% | – | – | – | – | – | – | –

SMILES | remaining at 3 h, 1 µM [1] | CLH [2] | inhibition at 0.1 µM [3] | inhibition at 1 µM [4] | inhibition at 0.01 µM [5] | IC50 [6] | IC50 [7] | IC50 [8] | IC50 [9] | IC50 at 72 h [10] | IC50 [11] | Ratio IC50 [12]
COc1cc2c(c(OC)c1OC)C(=O)CCN2c1ccc(O)c(O)c1 | – | – | 22.9% | 35% | 21.9% | – | – | – | – | – | – | –
CC(=O)O[C@H]1C(=O)[C@@]2(C)[C@H]([C@H](OC(=O)c3ccccc3)[C@]3(O)C[C@H](OC(=O)[C@H](O)[C@@H](NC(=O)c4ccccc4)c4ccccc4)C(C)=C1C3(C)C)[C@]1(OC(C)=O)CO[C@@H]1C[C@@H]2O [PACLITAXEL] | – | – | – | – | – | – | 22 nM | – | – | – | 602 nM | 27.36
COc1cc2c(c(OC)c1OC)C(=O)CCN2c1ccc2c(ccn2C)c1 | – | – | 78.6% | 79.2% | 54.3% | 72 nM | 11 nM | 102 nM | 25 nM | 102 nM | – | –
COc1cc2c(c(OC)c1OC)C(=O)CCN2c1c[nH]c2ccccc12 | – | – | 31.4% | 51.7% | 16.6% | – | – | – | – | – | – | –
COc1cc(N2CCC(=O)c3cc4c(cc32)OCO4)cc(OC)c1OC | – | – | 29.2% | 46.6% | 19.9% | – | – | – | – | – | – | –
COc1cc(N2CCC(=O)c3c2cc(OC)c(OC)c3OC)cc(OC)c1OC | – | – | 19.4% | 28.4% | 12.3% | – | – | – | – | – | – | –
COc1cc2c(c(OC)c1OC)C(=O)CCN2c1cccc2c1ccn2C | – | – | 56% | 74.2% | 19.2% | 21 nM | 63 nM | 33 nM | 7 nM | 99 nM | – | –
COc1cc2c(c(OC)c1OC)C(=O)CCN2c1ccc2c(c1)OCO2 | – | – | 44.8% | 65.3% | 22.6% | – | – | – | – | – | – | –
COc1cc2c(c(OC)c1OC)C(=O)CCN2c1cccc(O)c1 | – | – | 36.8% | 50.1% | 15.8% | – | – | – | – | – | – | –
COc1ccc(N2CCC(=O)c3cc4c(cc32)OCO4)cc1O | – | – | 14.3% | 28% | 12.7% | – | – | – | – | – | – | –
COc1ccc(N2CCC(=O)c3ccccc32)cc1O | – | – | 54.7% | 58.5% | 38.2% | – | – | – | – | – | – | –
COc1cc2c(c(OC)c1OC)C(=O)CCN2c1ccc2ccn(C)c2c1 | – | – | 53.4% | 61% | 13.2% | 648 nM | 170 nM | 1140 nM | 147 nM | 2760 nM | – | –
COc1ccc(N2CCC(=O)c3cc(OC)c(OC)cc32)cc1O | – | – | 44.2% | 73.3% | 20.4% | 672 nM | 280 nM | 902 nM | 226 nM | 3300 nM | – | –
COc1cc2c(c(OC)c1OC)C(=O)CCN2c1ccc(C)cc1 | – | – | 41.7% | 64.1% | 21% | – | – | – | – | – | – | –
COc1cc2c(c(OC)c1OC)C(=O)CCN2c1ccccc1 | – | – | 12.3% | 31.1% | 6.13% | – | – | – | – | – | – | –
COc1cc2c(cc1O)N(c1cc(OC)c(OC)c(OC)c1)CCC2=O | – | – | 45.6% | 54.4% | 33.5% | – | – | – | – | – | – | –

— ChEMBL document CHEMBL5634150, “Design, synthesis and biological evaluation of novel dihydroquinolin-4(1H)-one derivatives as novel tubulin polymerization inhibitors” (Eur J Med Chem, 2023)
